The source made the active and inactive calls. No cut-off for these calls is given here.
Key:
[1] = target: DNA replication licensing factor MCM7 (Homo sapiens) (UniProt P33993); assay: Induction of ubiquitination of MCM7 in human NCI-H1975 cells incubated for 24 hrs by immunoblot analysis; type: cell-based
NCI-H1975 [2] = assay: Induction of apoptosis in human NCI-H1975 cells xenografted in athymic nude BALB/c mouse at 1 or 4 mg/kg, ip administered for 4 weeks by hematoxylin and eosin staining based assay; type: functional, organism-based
[3] = target: DNA replication licensing factor MCM7 (Homo sapiens) (UniProt P33993); assay: Induction of ubiquitination of MCM7 in human NCI-H1975 cells in presence of MG132 incubated for 48 hrs followed by MG132 addition and measured after 12 hrs by immunoblot analysis (reference value: 1.6); type: cell-based
[4] = target: T1, DNA replication licensing factor MCM6 (Homo sapiens) (UniProt Q14566); assay: Induction of ubiquitination of MCM6 in human NCI-H1975 cells incubated for 24 hrs by immunoblot analysis; type: cell-based
T1 sequence (whole entry): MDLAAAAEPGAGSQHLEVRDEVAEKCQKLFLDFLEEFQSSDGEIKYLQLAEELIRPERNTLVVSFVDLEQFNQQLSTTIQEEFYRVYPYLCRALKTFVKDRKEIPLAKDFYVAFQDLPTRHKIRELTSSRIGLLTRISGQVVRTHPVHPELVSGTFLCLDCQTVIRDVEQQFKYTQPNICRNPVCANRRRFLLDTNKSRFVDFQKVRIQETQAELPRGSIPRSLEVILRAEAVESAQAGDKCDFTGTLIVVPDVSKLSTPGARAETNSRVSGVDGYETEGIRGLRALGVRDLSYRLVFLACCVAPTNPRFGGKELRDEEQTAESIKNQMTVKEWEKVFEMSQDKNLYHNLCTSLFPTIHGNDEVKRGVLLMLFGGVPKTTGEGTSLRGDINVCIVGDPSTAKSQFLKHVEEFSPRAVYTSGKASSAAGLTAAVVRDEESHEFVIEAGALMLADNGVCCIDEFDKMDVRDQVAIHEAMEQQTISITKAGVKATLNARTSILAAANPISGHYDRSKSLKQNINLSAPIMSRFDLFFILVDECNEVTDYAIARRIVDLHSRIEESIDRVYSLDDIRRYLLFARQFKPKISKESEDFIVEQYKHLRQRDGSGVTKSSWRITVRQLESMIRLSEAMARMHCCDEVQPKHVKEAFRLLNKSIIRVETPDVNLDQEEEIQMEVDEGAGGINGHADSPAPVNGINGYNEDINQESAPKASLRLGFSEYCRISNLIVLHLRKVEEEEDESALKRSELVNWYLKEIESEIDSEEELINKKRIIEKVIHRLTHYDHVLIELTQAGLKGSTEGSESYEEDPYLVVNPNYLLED

[5] = target: DNA replication licensing factor MCM2 (Homo sapiens) (UniProt P49736); assay: Induction of ubiquitination of MCM2 in human NCI-H1975 cells incubated for 24 hrs by magnetic beads technique based immunoblot analysis; type: cell-based
[6] = target: T1, DNA replication licensing factor MCM6 (Homo sapiens); assay: Induction of ubiquitination of MCM6 in human NCI-H1975 cells incubated for 72 hrs by immunoblot analysis (reference value: 1); type: cell-based
[7] = target: DNA replication licensing factor MCM7 (Homo sapiens) (UniProt P33993); assay: Induction of ubiquitination of MCM7 in human PC9 cells incubated for 24 hrs by immunoblot analysis; type: cell-based; conditions: PC-9
[8] = target: DNA replication licensing factor MCM2 (Homo sapiens) (UniProt P49736); assay: Induction of ubiquitination of MCM2 in human PC9 cells incubated for 24 hrs by immunoblot analysis; type: cell-based; conditions: PC-9
NCI-H1975 [9] = assay: Antitumor activity against human NCI-H1975 cells xenografted in athymic nude BALB/c mouse assessed as tumor growth at 4 mg/kg, ip administered for 4 weeks (reference value: 1217 +/- 516.6 cu.mm); type: functional
[10] = target: T2, DNA replication licensing factor MCM3 (Homo sapiens) (UniProt P25205); assay: Induction of ubiquitination of MCM3 in human NCI-H1975 cells incubated for 48 hrs by immunoblot analysis (reference value: 1); type: cell-based
T2 sequence (whole entry): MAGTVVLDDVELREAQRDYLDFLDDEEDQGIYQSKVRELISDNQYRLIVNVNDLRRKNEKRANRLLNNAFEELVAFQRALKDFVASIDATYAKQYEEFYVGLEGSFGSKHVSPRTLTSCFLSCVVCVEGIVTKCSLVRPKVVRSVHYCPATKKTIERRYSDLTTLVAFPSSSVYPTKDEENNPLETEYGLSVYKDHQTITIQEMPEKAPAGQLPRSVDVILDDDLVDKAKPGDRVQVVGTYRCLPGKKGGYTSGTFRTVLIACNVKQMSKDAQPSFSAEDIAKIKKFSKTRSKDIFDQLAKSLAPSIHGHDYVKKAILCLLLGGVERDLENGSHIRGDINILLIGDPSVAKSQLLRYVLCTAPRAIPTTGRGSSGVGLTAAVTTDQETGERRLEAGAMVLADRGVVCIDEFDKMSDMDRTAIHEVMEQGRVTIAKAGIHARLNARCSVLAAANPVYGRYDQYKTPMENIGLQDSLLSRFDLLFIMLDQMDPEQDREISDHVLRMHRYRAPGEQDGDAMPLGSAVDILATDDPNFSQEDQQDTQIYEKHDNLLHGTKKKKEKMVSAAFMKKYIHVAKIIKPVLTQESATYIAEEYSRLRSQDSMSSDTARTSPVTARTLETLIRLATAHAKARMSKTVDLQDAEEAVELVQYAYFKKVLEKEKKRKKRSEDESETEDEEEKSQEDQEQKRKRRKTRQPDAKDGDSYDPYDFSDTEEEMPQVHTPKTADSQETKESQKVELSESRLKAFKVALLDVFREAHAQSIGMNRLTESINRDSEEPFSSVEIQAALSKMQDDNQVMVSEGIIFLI

[11] = target: DNA replication licensing factor MCM2 (Homo sapiens) (UniProt P49736); assay: Induction of ubiquitination of FLAG-tagged MCM2 in human NCI-H1975 cells incubated for 24 hrs by magnetic beads technique based immunoblot analysis; type: cell-based
[12] = target: DNA replication licensing factor MCM2 (Homo sapiens) (UniProt P49736); assay: Induction of ubiquitination of FLAG-tagged MCM2 in human 293T cells incubated for 4 hrs by magnetic beads technique based immunoblot analysis; type: cell-based; conditions: HEK-293T

Sequence of DNA replication licensing factor MCM2 (Homo sapiens) (P49736 whole entry): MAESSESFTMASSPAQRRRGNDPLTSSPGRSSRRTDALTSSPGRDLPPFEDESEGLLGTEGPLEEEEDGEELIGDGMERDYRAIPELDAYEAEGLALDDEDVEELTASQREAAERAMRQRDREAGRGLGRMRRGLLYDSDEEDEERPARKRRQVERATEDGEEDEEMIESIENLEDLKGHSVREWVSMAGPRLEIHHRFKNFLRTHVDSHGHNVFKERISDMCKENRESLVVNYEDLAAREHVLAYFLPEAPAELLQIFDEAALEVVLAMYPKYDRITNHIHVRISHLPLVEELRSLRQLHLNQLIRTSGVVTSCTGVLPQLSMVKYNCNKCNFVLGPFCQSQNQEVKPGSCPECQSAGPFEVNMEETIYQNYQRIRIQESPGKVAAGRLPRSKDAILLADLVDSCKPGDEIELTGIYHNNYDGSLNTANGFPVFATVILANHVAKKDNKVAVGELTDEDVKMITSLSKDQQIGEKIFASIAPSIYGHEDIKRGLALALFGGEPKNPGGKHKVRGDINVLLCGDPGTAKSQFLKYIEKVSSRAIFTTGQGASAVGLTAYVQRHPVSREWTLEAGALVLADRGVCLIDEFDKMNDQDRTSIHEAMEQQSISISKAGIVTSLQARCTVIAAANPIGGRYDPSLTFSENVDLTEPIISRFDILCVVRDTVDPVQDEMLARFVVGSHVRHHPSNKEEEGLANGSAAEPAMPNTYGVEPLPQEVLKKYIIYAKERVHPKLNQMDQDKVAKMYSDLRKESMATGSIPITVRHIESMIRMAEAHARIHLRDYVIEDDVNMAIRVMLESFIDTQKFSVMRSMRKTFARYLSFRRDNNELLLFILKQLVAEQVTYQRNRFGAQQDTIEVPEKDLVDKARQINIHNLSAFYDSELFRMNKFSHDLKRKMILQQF
Sequence of DNA replication licensing factor MCM7 (Homo sapiens) (P33993 whole entry): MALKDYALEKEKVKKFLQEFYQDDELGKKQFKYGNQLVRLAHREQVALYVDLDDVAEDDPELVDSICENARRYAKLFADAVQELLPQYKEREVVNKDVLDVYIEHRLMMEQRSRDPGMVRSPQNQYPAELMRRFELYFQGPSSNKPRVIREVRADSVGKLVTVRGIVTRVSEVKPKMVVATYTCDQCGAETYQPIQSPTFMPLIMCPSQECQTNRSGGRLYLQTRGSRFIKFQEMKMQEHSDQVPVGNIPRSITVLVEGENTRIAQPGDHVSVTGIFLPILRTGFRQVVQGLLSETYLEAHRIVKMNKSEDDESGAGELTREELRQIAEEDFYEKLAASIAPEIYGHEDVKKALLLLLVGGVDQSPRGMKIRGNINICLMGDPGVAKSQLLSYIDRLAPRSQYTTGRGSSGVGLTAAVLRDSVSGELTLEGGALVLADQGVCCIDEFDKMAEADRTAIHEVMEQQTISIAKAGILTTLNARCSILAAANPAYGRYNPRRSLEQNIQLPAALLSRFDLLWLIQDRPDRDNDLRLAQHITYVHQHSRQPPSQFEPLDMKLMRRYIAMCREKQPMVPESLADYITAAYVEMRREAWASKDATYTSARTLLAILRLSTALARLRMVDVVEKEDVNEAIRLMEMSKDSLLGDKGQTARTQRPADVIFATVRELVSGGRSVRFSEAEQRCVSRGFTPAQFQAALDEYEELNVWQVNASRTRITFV

For `Cc1oc2c(c1C(=O)NCCCn1ccnc1)C(=O)c1ccccc1C2=O`, the Activity [1] was “Dose-dependent effect”, the Activity (NCI-H1975 [2]) was “Active” and the Activity [3] was 0.7. The Activity [4] was “Dose-dependent effect”, the Activity [5] was “Active” and the Activity [6] was 0.2. The Activity [7] was “Active”, the Activity [8] was “Active” and the Activity (NCI-H1975 [9]) was 518 mm3. The Activity [10] was 1.1, the Activity [11] was “Active” and the Activity [12] was “Active”.

From ChEMBL document CHEMBL4602694, “Suppression of Drug-Resistant Non-Small-Cell Lung Cancer with Inhibitors Targeting Minichromosomal Maintenance Protein” (J Med Chem, 2020)
